Where two headings read alike, the source gives them in different places.
Key:
Format in all cases: in vivo
Abutilon theophrasti [1] = assay: Greenhouse pre-emergence (PRE) herbicidal test on ABUTH
Procedure, shortened: (§1)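 Scoring ran from 0 (normal growth) to 100 (no emergence or above-ground parts fully destroyed) and was done 20 DAT. Application was pre-emergent in pots of loamy sand (~3.0% humus) sown per species. Plants grew at 10-25° C or 20-35° C by species.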

Alopecurus myosuroides = assay: Greenhouse pre-emergence (PRE) herbicidal test on ALOMY; settings: Alopecurus myosuroides, pre-emergence
Procedure, shortened: as §1

Avena fatua = assay: Greenhouse pre-emergence (PRE) herbicidal test on AVEFA
From the text: (§2) The culture containers used were plastic pots containing loamy sand with approximately 3.0% of humus as substrate. The seeds of the test plants were sown separately for each species.
(§3) For the pre-emergence treatment, the active compounds, suspended or emulsified in water, were applied directly after sowing by means of finely distributing nozzles. The containers were irrigated gently to promote germination and growth and subsequently covered with transparent plastic hoods until the plants had rooted. This cover caused uniform germination of the test plants unless this was adversely affected by the active compounds.
(§4) Depending on the species, the plants were kept at 10-25° C. and 20-35° C., respectively.
(§5) The test period extended over 2 to 4 weeks. During this time, the plants were tended and their response to the individual treatments was evaluated.
(§6) Evaluation was carried out using a scale from 0 to 100. 100 means no emergence of the plants, or complete destruction of at least the above-ground parts, and 0 means no damage or normal course of growth. A good herbicidal activity is given at values of at least 70, and very good herbicidal activity is given at values of at least 85.
(§7) If not stated differently, the respective components A and B, and if appropriate, C were formulated as a 5% by weight strength emulsion concentrate and, with addition of the amount of solvent system, introduced into the spray liquor used for applying the active compound.
(§8) As indicated application was either post emergent (POST) at the respective growth stage (GS) of the weed (BBCH code), or pre-emergent (PRE).
(§9) Assessment was 20 days after treatment (DAT).

Brachiaria decumbens = assay: Greenhouse pre-emergence (PRE) herbicidal test on BRADC; settings: Urochloa decumbens; for inhibition at 200 g/ha: use rate 200 gai/ha
From the text: as §2, §3, §4, §5, §6, §7, §8, §9

Commelina benghalensis [2] = assay: Greenhouse pre-emergence (PRE) herbicidal test on COMBE; settings: Commelina benghalensis, pre-emergence
Procedure, shortened: as §1

Euphorbia heterophylla = assay: Greenhouse pre-emergence (PRE) herbicidal test on EPHHL; settings: for inhibition at 200 g/ha: use rate 200 gai/ha
Procedure, shortened: as §1

Geranium pusillum [3] = assay: Greenhouse pre-emergence (PRE) herbicidal test on GERPU; settings: Geranium pusillum, pre-emergence; for inhibition at 200 g/ha: use rate 200 gai/ha
From the text: as §2, §3, §4, §5, §6, §7, §8, §9

Lolium multiflorum = assay: Greenhouse pre-emergence (PRE) herbicidal test on LOLMU; settings: for inhibition at 200 g/ha: use rate 200 gai/ha
Procedure, shortened: as §1

SETFA = assay: Greenhouse pre-emergence (PRE) herbicidal test on SETFA; settings: Setaria faberi, use rate 50 gai/ha
Galium aparine = assay: Greenhouse pre-emergence (PRE) herbicidal test on GALAP; settings: PRE, GALAP; for inhibition at 200 g/ha: use rate 200 gai/ha
From the text: as §2, §3, §4, §5, §6, §7, §8, §9

Polygonum convolvulus = assay: Greenhouse pre-emergence (PRE) herbicidal test on POLCO
From the text: as §2, §3, §4, §5, §6, §7, §8, §9

Ambrosia artemisiifolia = assay: Greenhouse pre-emergence (PRE) herbicidal test on AMBEL; settings: PRE, 20 DAT
AMAPA [4] = assay: Greenhouse pre-emergence (PRE) herbicidal test on AMAPA; settings: use rate 3.1 gai/ha, 20 DAT
AMAPA [5] = assay: Greenhouse post-emergence (POST) herbicidal test on AMAPA; settings: use rate 12.5 gai/ha, 20 DAT
Amaranthus retroflexus [6] = assay: Greenhouse pre-emergence (PRE) herbicidal test on AMARE; settings: Amaranthus retroflexus, pre-emergence, 480 h; PRE, AMARE, 1.25 gai/ha, 20 DAT; read-out: % activity solo application
Procedure, shortened: as §1

Echinochloa crus-galli = assay: Greenhouse pre-emergence (PRE) herbicidal test on ECHCG; settings: Echinochloa crus-galli, pre-emergence, 480 h, PRE, ECHCG, 20 DAT, read-out: % activity solo application
Ipomoea hederacea [7] = assay: Greenhouse pre-emergence (PRE) herbicidal test on IPOHE; settings: Ipomoea hederacea, pre-emergence, 480 h, PRE, IPOHE, 20 DAT
From the text: as §2, §3, §4, §5, §6, §7, §8, §9

Setaria viridis [8] = assay: Greenhouse pre-emergence (PRE) herbicidal test on SETVI; settings: Setaria viridis, pre-emergence, 480 h, PRE, SETVI, 20 DAT, read-out: % activity solo application
Procedure, shortened: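 Visual rating on a 0 (normal growth) to 100 (no emergence or above-ground kill) scale at 20 DAT. Treatment was pre-emergence spray of aqueous suspension/emulsion right after sowing into loamy sand with ~3.0% humus; covered until rooted, grown at 10-25° C or 20-35° C depending on species.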

Abutilon theophrasti [9] = assay: Greenhouse post-emergence (POST) herbicidal test on ABUTH; settings: Abutilon theophrasti, post-emergence, 480 h, POST, ABUTH, 20 DAT, read-out: % activity solo application
Procedure, shortened: (§10)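 Plants grown in pots of loamy sand (~3.0% humus) to 3–15 cm height, then sprayed with compounds suspended or emulsified in water (formulated as 5% by weight emulsion concentrate). Kept at 10-25° C or 20-35° C by species; injury scored 0–100 (100 = complete destruction) at 20 DAT.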

Amaranthus retroflexus [10] = assay: Greenhouse post-emergence (POST) herbicidal test on AMARE; settings: Amaranthus retroflexus, post-emergence, 480 h, POST, AMARE, 20 DAT, read-out: % activity solo application
Procedure, shortened: as §10

Commelina benghalensis [11] = assay: Greenhouse post-emergence (POST) herbicidal test on COMBE; settings: 480 h, use rate 1.25 gai/ha, 20 DAT
Procedure: as §2
(§11) For the post-emergence treatment, the test plants were grown to a plant height of from 3 to 15 cm, depending on the plant habit, and only then treated with the active compounds which had been suspended or emulsified in water. To this end, the test plants were either sown directly, and grown in the same containers, or they were first grown separately as seedlings and transplanted into the test containers a few days prior to treatment.
as §4, §5, §6, §7, §8, §9

Digitaria sanguinalis = assay: Greenhouse post-emergence (POST) herbicidal test on DIGSA; settings: Digitaria sanguinalis, post-emergence, 480 h, POST, DIGSA, 5 gai/ha, 20 DAT; read-out: % activity solo application
Procedure, shortened: as §10

Geranium pusillum [12] = assay: Greenhouse post-emergence (POST) herbicidal test on GERPU; settings: Geranium pusillum, post-emergence, 480 h, POST, GERPU, 20 DAT
Procedure, shortened: as §10

Ipomoea hederacea [13] = assay: Greenhouse post-emergence (POST) herbicidal test on IPOHE; settings: Ipomoea hederacea, post-emergence, 480 h, POST, IPOHE, 20 DAT, read-out: % activity solo application
Procedure, shortened: as §10

Setaria viridis [14] = assay: Greenhouse post-emergence (POST) herbicidal test on SETVI; settings: 480 h, use rate 5 gai/ha, 20 DAT
Procedure: as §2, §11, §4, §5, §6, §7, §8, §9

CCCCOCN(C(=O)CCl)c1c(CC)cccc1CC [Butachlor, butachlor]
inhibition at 50 g/ha (Abutilon theophrasti [1]; Abutilon theophrasti, pre-emergence, ABUTH PRE, use rate 50 gai/ha): 0% | inhibition at 200 g/ha (Alopecurus myosuroides; ALOMY PRE, use rate 200 gai/ha): 0% | inhibition at 50 g/ha (Avena fatua; use rate 50 gai/ha): 0% | inhibition at 200 g/ha (Avena fatua; use rate 200 gai/ha): 0% | inhibition at 200 g/ha (Brachiaria decumbens; BRADC PRE): 30% | inhibition at 50 g/ha (Commelina benghalensis [2]; COMBE PRE, use rate 50 gai/ha): 70% | inhibition at 200 g/ha (Euphorbia heterophylla; Euphorbia heterophylla, pre-emergence, EPHHL PRE): 5% | inhibition at 50 g/ha (Geranium pusillum [3]; GERPU PRE, use rate 50 gai/ha): 55% | inhibition at 200 g/ha (Geranium pusillum [3]; GERPU PRE): 25% | inhibition at 50 g/ha (Lolium multiflorum; Lolium multiflorum, pre-emergence, LOLMU PRE, use rate 50 gai/ha): 0% | inhibition at 200 g/ha (Lolium multiflorum; Lolium multiflorum, pre-emergence, LOLMU PRE): 0% | inhibition at 50 g/ha (SETFA): 25%

CCCOCCN(C(=O)CCl)c1c(CC)cccc1CC [Pretilachlor, pretilachlor]
inhibition at 25 g/ha (Brachiaria decumbens; PRE, BRADC, use rate 25 gai/ha): 0% | inhibition at 200 g/ha (Brachiaria decumbens; PRE, BRADC): 40% | inhibition at 25 g/ha (Euphorbia heterophylla; Euphorbia heterophylla, pre-emergence, PRE, EPPHL, use rate 25 gai/ha): 0% | inhibition at 200 g/ha (Euphorbia heterophylla; Euphorbia heterophylla, pre-emergence, PRE, EPPHL): 10% | inhibition at 200 g/ha (Galium aparine; Galium aparine, pre-emergence): 15% | inhibition at 200 g/ha (Geranium pusillum [3]; PRE, GERPU): 45% | inhibition at 25 g/ha (Lolium multiflorum; Lolium multiflorum, pre-emergence, PRE, LOLMU, use rate 25 gai/ha): 0% | inhibition at 25 g/ha (Polygonum convolvulus; Fallopia convolvulus, pre-emergence, use rate 25 gai/ha): 0% | inhibition at 200 g/ha (Polygonum convolvulus; Fallopia convolvulus, pre-emergence, use rate 200 gai/ha): 30%

C#CCN(C)c1c(C#N)cnn1-c1nn2c(c1Cl)CCCC2 [Pyraclonil, pyraclonil]
% activity (Ambrosia artemisiifolia; use rate 12.5 gai/ha): 0% | % activity (Lolium multiflorum; PRE, use rate 12.5 gai/ha, 20 DAT): 0% | % activity (AMAPA [4]): 50% | % activity (AMAPA [5]): 90%

CC(C)N(C)S(=O)(=O)NC(=O)c1cc(-n2c(=O)cc(C(F)(F)F)n(C)c2=O)c(F)cc1Cl [Saflufenacil, saflufenacil]
inhibition at 1.25 g/ha (Abutilon theophrasti [1]; Abutilon theophrasti, pre-emergence, 480 h, PRE, ABUTH, 1.25 gai/ha, 20 DAT, read-out: % activity solo application): 10% | inhibition at 1.25 g/ha (Alopecurus myosuroides; 480 h, PRE, ALOMY, 1.25 gai/ha, 20 DAT, read-out: % activity solo application): 20% | inhibition at 5 g/ha (Alopecurus myosuroides; 480 h, PRE, ALOMY, 5 gai/ha, 20 DAT, read-out: % activity solo application): 10% | inhibition at 1.25 g/ha (Amaranthus retroflexus [6]): 0% | inhibition at 1.25 g/ha (Ambrosia artemisiifolia; Ambrosia artemisiifolia, pre-emergence, 480 h, AMBEL, 1.25 gai/ha, read-out: % activity solo application): 0% | inhibition at 5 g/ha (Ambrosia artemisiifolia; Ambrosia artemisiifolia, pre-emergence, 480 h, AMBEL, 5 gai/ha, read-out: % activity solo application): 50% | inhibition at 1.25 g/ha (Commelina benghalensis [2]; 480 h, PRE, COMBE, 1.25 gai/ha, 20 DAT, read-out: % activity solo application): 5% | inhibition at 1.25 g/ha (Echinochloa crus-galli; 1.25 gai/ha): 0% | inhibition at 5 g/ha (Echinochloa crus-galli; 5 gai/ha): 0% | inhibition at 1.25 g/ha (Euphorbia heterophylla; Euphorbia heterophylla, pre-emergence, 480 h, PRE, EPHHL, 1.25 gai/ha, 20 DAT, read-out: % activity solo application): 5% | inhibition at 5 g/ha (Euphorbia heterophylla; Euphorbia heterophylla, pre-emergence, 480 h, PRE, EPHHL, 5 gai/ha, 20 DAT, read-out: % activity solo application): 50% | inhibition at […] (Ipomoea hederacea [7]; use rate 2.5 gai/ha): 5% | inhibition at 5 g/ha (Ipomoea hederacea [7]; use rate 5 gai/ha): 25% | inhibition at 1.25 g/ha (Lolium multiflorum; Lolium multiflorum, pre-emergence, 480 h, PRE, LOLMU, 1.25 gai/ha, 20 DAT, read-out: % activity solo application): 0% | inhibition at 5 g/ha (Lolium multiflorum; Lolium multiflorum, pre-emergence, 480 h, PRE, LOLMU, 5 gai/ha, 20 DAT, read-out: % activity solo application): 0% | inhibition at 5 g/ha (Lolium multiflorum; Lolium multiflorum, pre-emergence, 480 h, PRE, LOLMU, use rate 5 gai/ha, 20 DAT, read-out: % activity): 45% | inhibition at 1.25 g/ha (Setaria viridis [8]; 1.25 gai/ha): 0% | inhibition at 5 g/ha (Setaria viridis [8]; 5 gai/ha): 0% | inhibition at 1.25 g/ha (Abutilon theophrasti [9]; 1.25 gai/ha): 5% | inhibition at 5 g/ha (Abutilon theophrasti [9]; 5 gai/ha): 10% | inhibition at 1.25 g/ha (Amaranthus retroflexus [10]; 1.25 gai/ha): 0% | inhibition at 5 g/ha (Amaranthus retroflexus [10]; 5 gai/ha): 0% | inhibition at 1.25 g/ha (Commelina benghalensis [11]): 60% | inhibition at 5 g/ha (Digitaria sanguinalis): 0% | inhibition at […] (Geranium pusillum [12]; use rate 2.5 gai/ha): 60% | inhibition at 5 g/ha (Geranium pusillum [12]; use rate 5 gai/ha, read-out: % activity): 80% | inhibition at 1.25 g/ha (Ipomoea hederacea [13]; 1.25 gai/ha): 0% | inhibition at 5 g/ha (Ipomoea hederacea [13]; 5 gai/ha): 10% | inhibition at 5 g/ha (Setaria viridis [14]): 60%

CCC(CC)Nc1c([N+](=O)[O-])cc(C)c(C)c1[N+](=O)[O-] [Pendimethalin, pendimethalin]
inhibition at 200 g/ha (Abutilon theophrasti [1]; Abutilon theophrasti, pre-emergence, PRE, ABUTH, use rate 200 gai/ha): 65% | inhibition at 200 g/ha (Commelina benghalensis [2]; PRE, COMBE, use rate 200 gai/ha): 40% | inhibition at 800 g/ha (Commelina benghalensis [2]; PRE, COMBE, use rate 800 gai/ha): 50% | inhibition at 200 g/ha (Galium aparine; Galium aparine, pre-emergence): 0% | inhibition at 800 g/ha (Galium aparine; Galium aparine, pre-emergence, use rate 800 gai/ha): 10% | inhibition at 200 g/ha (Lolium multiflorum; Lolium multiflorum, pre-emergence, PRE, LOLMU): 0% | inhibition at 800 g/ha (Polygonum convolvulus; Fallopia convolvulus, pre-emergence, use rate 800 gai/ha): 70%

CC1(C)CON(Cc2ccc(Cl)cc2Cl)C1=O [Bixlozone, bixlozone]
% activity (Abutilon theophrasti [1]; PRE, ABUTH, use rate 60 gai/ha): 0% | % activity (Euphorbia heterophylla; PRE, EPPHL, use rate 15 gai/ha): 0% | % activity (Euphorbia heterophylla; PRE, EPPHL, use rate 60 gai/ha): 0% | % activity (Galium aparine; use rate 60 gai/ha): 50% | % activity (Polygonum convolvulus; use rate 60 gai/ha): 0%
